Experimental data reported in patent US8394789B2, “(Dihydro)pyrrolo[2,1-α]isoquinolines” (MSD Oss B.V., priority 2008, dated 2013).

target: T1, human FSH receptor (Homo sapiens, UniProt P23945); assay: hFSHRago (CHO luc): agonistic activity at the human FSH receptor expressed in CHO cells, CRE-luciferase reporter; assay type: cell-based; conditions: CHO cells stably transfected with human FSH receptor and CRE/luciferase reporter; 4 hours of incubation
T1 construct: expressed in transfected cells
T1 sequence (P23945 18-695): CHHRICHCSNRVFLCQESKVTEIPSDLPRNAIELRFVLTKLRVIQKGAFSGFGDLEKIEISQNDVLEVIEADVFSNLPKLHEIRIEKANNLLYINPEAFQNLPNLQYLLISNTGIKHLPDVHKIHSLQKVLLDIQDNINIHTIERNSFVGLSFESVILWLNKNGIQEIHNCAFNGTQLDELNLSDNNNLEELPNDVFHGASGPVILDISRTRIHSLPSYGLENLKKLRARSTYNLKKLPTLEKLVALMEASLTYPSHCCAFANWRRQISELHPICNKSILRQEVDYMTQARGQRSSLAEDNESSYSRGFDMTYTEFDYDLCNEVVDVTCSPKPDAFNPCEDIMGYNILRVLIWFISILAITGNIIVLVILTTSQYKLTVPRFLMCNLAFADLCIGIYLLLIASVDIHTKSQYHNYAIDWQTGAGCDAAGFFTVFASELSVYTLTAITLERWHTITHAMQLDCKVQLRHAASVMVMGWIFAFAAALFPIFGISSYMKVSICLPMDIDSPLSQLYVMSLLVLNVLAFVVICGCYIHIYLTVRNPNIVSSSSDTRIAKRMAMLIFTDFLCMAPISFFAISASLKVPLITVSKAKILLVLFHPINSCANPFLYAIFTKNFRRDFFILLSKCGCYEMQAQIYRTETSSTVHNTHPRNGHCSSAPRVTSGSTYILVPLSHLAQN

Structure (SMILES)	EC50 [nM]
COc1cc2c(cc1OC(C)C)-c1c(-c3cccs3)cc(C(=O)N3C[C@H]4C[C@@H](N(C)C(C)=O)C[C@H]4C3)n1CC2 [Example 26, N-[2-(9-Isopropoxy-8-methoxy-1-thiophen-2-yl-5,6-dihydro-pyrrolo[2,1-α]isoquinoline-3-carbonyl)-octahydro-cyclopenta[c]pyrrol-5-yl]-N-methyl-acetamide]	173
CCC1CCCN1C(=O)c1cc(-c2cccs2)c2n1CCc1cc(OC)c(OC(C)C)cc1-2 (stereo not drawn) [Example 27, (2-Ethyl-pyrrolidin-1-yl)-(9-isopropoxy-8-methoxy-1-thiophen-2-yl-5,6-dihydro-pyrrolo[2,1-α]isoquinolin-3-yl)-methanone]	16.2
COc1cc2c(cc1OC(C)C)-c1c(-c3cccs3)cc(C(=O)N3CCCC3c3cccc(F)c3)n1CC2 (stereo not drawn) [Example 28, [2-(3-Fluoro-phenyl)-pyrrolidin-1-yl]-(9-isopropoxy-8-methoxy-1-thiophen-2-yl-5,6-dihydro-pyrrolo[2,1-α]isoquinolin-3-yl)-methanone]	752
COc1cc2c(cc1OC(C)C)-c1c(-c3cccs3)cc(C(=O)N3CCCC3c3cccnc3)n1CC2 (stereo not drawn) [Example 29, (9-Isopropoxy-8-methoxy-1-thiophen-2-yl-5,6-dihydro-pyrrolo[2,1-α]isoquinolin-3-yl)-(2-pyridin-3-yl-pyrrolidin-1-yl)-methanone]	624
COc1cc2c(cc1OC(C)C)-c1c(-c3cccs3)cc(C(=O)N(C)N(C)C)n1CC2 [Example 31, 9-Isopropoxy-8-methoxy-1-thiophen-2-yl-5,6-dihydro-pyrrolo[2,1-α]isoquinoline-3-carboxylic acid trimethylhydrazide]	241
COc1cc2c(cc1OC(C)C)-c1c(-c3cccs3)cc(C(=O)N(C)N3CCCC3)n1CC2 [Example 32, 9-Isopropoxy-8-methoxy-1-thiophen-2-yl-5,6-dihydro-pyrrolo[2,1-α]isoquinoline-3-carboxylic acid methyl-pyrrolidin-1-yl-amide]	55.2
COc1cc2c(cc1OC(C)C)-c1c(-c3cccs3)cc(C(=O)N[C@@H]3CCCN(C(=O)C4CCC4)C3)n1CC2 [Example 33c, 9-Isopropoxy-8-methoxy-1-thiophen-2-yl-5,6-dihydro-pyrrolo[2,1-α]isoquinoline-3-carboxylic acid ((R)-1-cyclobutanecarbonyl-piperidin-3-yl)-amide]	252
CCN(C(=O)c1cc(-c2cccs2)c2n1CCc1cc(OC)c(OC(C)C)cc1-2)[C@@H]1CCCN(C(=O)C2CCC2)C1 [Example 33d, 9-Isopropoxy-8-methoxy-1-thiophen-2-yl-5,6-dihydro-pyrrolo[2,1-α]isoquinoline-3-carboxylic acid ((R)-1-cyclobutanecarbonyl-piperidin-3-yl)-ethyl-amide]	279
COc1cc2c(cc1OC(C)C)-c1c(-c3cccs3)cc(C(=O)N[C@@H]3CCCN(C(C)=O)C3)n1CC2 [Example 34c, 9-Isopropoxy-8-methoxy-1-thiophen-2-yl-5,6-dihydro-pyrrolo[2,1-α]isoquinoline-3-carboxylic acid ((R)-1-acetyl-piperidin-3-yl)-amide]	251
COc1cc2c(cc1OC(C)C)-c1c(-c3cccs3)cc(C(=O)N(C)[C@@H]3CCCN(C(C)=O)C3)n1CC2 [Example 34d, 9-Isopropoxy-8-methoxy-1-thiophen-2-yl-5,6-dihydro-pyrrolo[2,1-α]isoquinoline-3-carboxylic acid ((R)-1-acetyl-piperidin-3-yl)-methyl-amide]	496
COc1cc2c(cc1OC(C)C)-c1c(-c3ccccn3)cc(C(=O)N3CCCN(C(=O)c4ccccn4)CC3)n1CC2 [Example 35, (9-Isopropoxy-8-methoxy-1-pyridin-2-yl-5,6-dihydro-pyrrolo[2,1-α]isoquinolin-3-yl)-[4-(pyridine-2-carbonyl)-[1,4]diazepan-1-yl]-methanone; trifluoro acetic acid]	244
COc1cc2ccn3c(C(=O)N(C)C(C)(C)C)cc(-c4cccs4)c3c2cc1OCCO [Example 36, 9-(2-Hydroxy-ethoxy)-8-methoxy-1-thiophen-2-yl-pyrrolo[2,1-α]isoquinoline-3-carboxylic acid tert-butyl-methyl-amide]	2.5
COc1cc2c(cc1OC(C)C)-c1c(Br)cc(C(=O)N(C)C(C)(C)C)n1CC2 [Example 37c, 1-Bromo-9-isopropoxy-8-methoxy-5,6-dihydro-pyrrolo[2,1-α]isoquinoline-3-carboxylic acid tert-butyl-methyl-amide]	234
COc1cc2c(cc1OC(C)C)-c1c(C#N)cc(C(=O)N(C)C(C)(C)C)n1CC2 [Example 37d, 1-Cyano-9-isopropoxy-8-methoxy-5,6-dihydro-pyrrolo[2,1-α]isoquinoline-3-carboxylic acid tert-butyl-methyl-amide]	67.1
COc1cc2c(cc1OC(C)C)-c1c(-c3nnn[nH]3)cc(C(=O)N(C)C(C)(C)C)n1CC2 [Example 38, 9-Isopropoxy-8-methoxy-1-(1H-tetrazol-5-yl)-5,6-dihydro-pyrrolo[2,1-α]isoquinoline-3-carboxylic acid tert-butyl-methyl-amide]	1640
COc1cc2c(cc1OC(C)C)-c1c(-c3cccs3)c(C=O)c(C(=O)N(C)C(C)(C)C)n1CC2 [Example 39, 2-Formyl-9-isopropoxy-8-methoxy-1-thiophen-2-yl-5,6-dihydro-pyrrolo[2,1-α]isoquinoline-3-carboxylic acid tert-butyl-methyl-amide]	2.7
COc1cc2c(cc1OC(C)C)-c1c(-c3cccs3)c(CO)c(C(=O)N(C)C(C)(C)C)n1CC2 [Example 40, 2-Hydroxymethyl-9-isopropoxy-8-methoxy-1-thiophen-2-yl-5,6-dihydro-pyrrolo[2,1-α]isoquinoline-3-carboxylic acid tert-butyl-methyl-amide]	8.8
COCc1c(-c2cccs2)c2n(c1C(=O)N(C)C(C)(C)C)CCc1cc(OC)c(OC(C)C)cc1-2 [Example 41, 9-Isopropoxy-8-methoxy-2-methoxymethyl-1-thiophen-2-yl-5,6-dihydro-pyrrolo[2,1-α]isoquinoline-3-carboxylic acid tert-butyl-methyl-amide]	2.8
COc1cc2c(cc1OC(C)C)-c1c(-c3cccs3)c(C=NO)c(C(=O)N(C)C(C)(C)C)n1CC2 [Example 42, 2-(Hydroxyimino-methyl)-9-isopropoxy-8-methoxy-1-thiophen-2-yl-5,6-dihydro-pyrrolo[2,1-α]isoquinoline-3-carboxylic acid tert-butyl-methyl-amide]	1.2
CON=Cc1c(-c2cccs2)c2n(c1C(=O)N(C)C(C)(C)C)CCc1cc(OC)c(OC(C)C)cc1-2 [Example 43, 9-Isopropoxy-8-methoxy-2-(methoxyimino-methyl)-1-thiophen-2-yl-5,6-dihydro-pyrrolo[2,1-α]isoquinoline-3-carboxylic acid tert-butyl-methyl-amide]	4.3
COc1cc2c(cc1OC(C)C)-c1c(-c3cccs3)cc(C(=O)CC(C)(C)C)n1CC2 [Example 45]	65.1
COc1cc2c(cc1OC(C)C)-c1c(-c3cccs3)cc(C(=O)C3CCCC3)n1CC2 [Example 46, Cyclopentyl-(9-isopropoxy-8-methoxy-1-thiophen-2-yl-5,6,6a,10a-tetrahydro-pyrrolo[2,1-α]isoquinolin-3-yl)-methanone]	78.2
